Data set [1] has as its system melanin. The data set is described as follows: Compound binding to melanin. As to conditions: cuttlefish (Sepia officinalis), melanin suspension (1 mg/mL), percentage of free drug (not bound to melanin), 2 µM compound, melanin 1 mg/mL in PBS pH 7.4, 37°C. The class given is in vitro ADME. A digest of the protocol:
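Compound at 2 µM final incubated with 1 mg/mL Sepia melanin in PBS pH 7.4, 37°C, 2 hours with shaking; blank in PBS with 0.1% BSA. Supernatant concentration by LC-MS/MS. Fb = 100 − (Ctest/Ccontrol) × 100%.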

Data set [2] concerns the target T1, VEGFR3 (Homo sapiens, UniProt P35916).
T1 construct: purchased Invitrogen PV4129
Kind of data set: Kinase inhibitory activity, Mobility Shift Assay (VEGFR3). It counts as biochemical. The protocol: (§1) Assay for Inhibitory Activity of Compounds Against VEGFR and EGFR Kinases
(§2) This assay directly monitors the inhibitory activity of compounds on kinase phosphorylation by measuring non-phosphorylated and phosphorylated substrates in the kinase reaction using Mobility Shift Assays/IMAP™ analysis. Table 2. Reagents and Instruments
(§3) Kinase and DTT were added to 1X kinase buffer to form a 2.5X kinase solution; 10 µL of the 2.5X kinase solution was transferred to a 384-well reaction plate, and 1X kinase buffer was added to the negative control wells. The plate was incubated at room temperature for 10 minutes; FAM-labeled peptide, MgCl2, ATP, and other reagents were added to 1X kinase buffer to form a 2.5X substrate solution; 10 µL of the above 2.5X substrate solution was transferred to the 384-well reaction plate; the plate was incubated at 28°C for varying times, and then 25 µL of stop solution was added to the 384-well reaction plate to terminate the reaction. Conversion rate data were read on a CaliperEZ Reader II. […] IC50 values were fitted using XLFit excel add-in version 5.4.0.8. Y = Bottom + (Top−Bottom)/(1 + […]) [formula]
(§4) X is the log value of compound concentration, Y is the inhibition rate (% inhibition).

Data set [3] addresses T2, VEGFR1 (Homo sapiens, UniProt P17948).
T2 construct: purchased Invitrogen PR6731B
Kind of data set: Kinase inhibitory activity, Mobility Shift Assay (VEGFR1). It counts as biochemical. The protocol:
as §1, §2, §3, §4

Data set [4] in a line: Thermodynamic solubility test. The class given is physicochemical. As to conditions: buffer solution, aqueous buffer, thermodynamic from solid; thermodynamic solubility, room temperature, 8 hours shaking; buffers pH 2.0, 6.5, 7.4 used, pH of the tabulated value not given. The essentials:
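Samples sonicated 10 min, shaken 8 h at room temperature, re-sonicated and centrifuged at 13000 rpm for 15 min. Supernatant recentrifuged and analysed by LC-MS, with concentrations quantified against a 3–5 point calibration curve.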

The nature of data set [5]: Plasma and ocular tissue distribution after single ocular administration of formulations in Dutch Belted rabbits (Example 9). The class given is in vivo. As to conditions: for concentration at 0.5 h: male, rabbit, plasma, other: ocular administration (eye drops). How it is done: Male Dutch Belted rabbits used in this experiment were purchased from Pizhou Dongfang Breeding Co., Ltd., with animal weights ranging from 1.5 to 2.5 kg. All procedures performed on experimental animals in this experiment complied with the relevant SOP requirements of Suzhou Sunstone New Drug Development Co., Ltd. and were approved by the Institutional Animal Care and Use Committee (IACUC) of Suzhou Sunstone New Drug Development Co., Ltd. Formulation Preparation: Weigh approximately 1 mg of the test substance into a glass vial. After necessary calculation/conversion, sequentially add the eye drop formulation vehicle (Tris-HCl buffer (0.05 mol/L): Tween 80: 0.5% CMC-Na = 49: 1:50). Vortex and sonicate after adding Tris-HCl buffer and Tween 80, then add 0.5% CMC-Na, vortex, and sonicate or cut if necessary, to prepare a 1 mg/mL dosing formulation. All prepared dosing formulations were freshly prepared on the day of administration, sampled, and the actual concentration of the dosing formulation was determined.
On the day of the experiment, animals were administered 1 mg/mL (0.05 mg/eye, 50 µL/eye). There were 2 animals per group. Animals were euthanized at 0.5, 4, or 8 hours after administration, respectively, by an appropriate method, and blood samples and ocular tissues (i.e., cornea, retina, choroid, and sclera) were collected. The collected 1 mL of whole blood was placed in an EDTA-K2 anticoagulant tube, inverted several times to mix thoroughly, and centrifuged (1500-1600 g) for 10 minutes within 30 minutes to separate plasma. The obtained plasma samples were stored at -80°C for bioanalysis. After collection, ocular tissues were washed with pre-cooled saline, dried, and stored at -80°C or under equivalent conditions for subsequent tissue homogenization and sample analysis. For ocular tissues requiring homogenization, the entire or a portion of the tissue was selected, accurately weighed, and homogenized at a 1:10 ratio with 20% methanol-water. The tissue homogenate was stored at -80°C for sample analysis. The concentrations of each analyte in rabbit ocular tissues and plasma obtained in this experiment were determined using an LC-MS/MS analytical method. The matrices were Dutch rabbit plasma (EDTA-K2 anticoagulated) and rabbit ocular tissue (1:10, 20% methanol-water). Left and right eyes were tested separately. BLOQ (Below the Limit of Quantification) is the lowest analyte concentration that can be quantified with acceptable precision and accuracy. Compounds were diluted 1:10 with homogenate before analysis, and if the concentration after dilution was less than 1 ng/mL, it was marked as BLOQ.
Example 9: Detection of Plasma and Ocular Tissue Distribution after Single Ocular Administration of Formulations in Dutch Belted Rabbits
The experimental procedure refers to Example 6. Animals were administered eye drops at 5 mg/mL (0.25 mg/eye, 50 µL/eye) or 1 mg/mL (0.05 mg/eye, 50 µL/eye), respectively. Table 22 Experimental Results
Except for compound I-32, the other components of Suspension A and Solution B are respectively: • Suspension A: Tris(hydroxymethyl)aminomethane-Hydrochloric Acid Buffer (0.05M): Tween 80: 0.5% (w/v) Sodium Carboxymethylcellulose aqueous solution = 49:1:50 (v/v/v); • Solution B: Polyethylene Glycol 400: 50mM Tris(hydroxymethyl)aminomethane-Hydrochloric Acid Buffer (containing 10% Hydroxypropyl-β-cyclodextrin, 1% Poloxamer 188, 0.3% Gellan Gum Gelrite, w/v) = 5:95 (v/v).

Data set [6] in a line: Ophthalmic formulations based on polyethylene glycol series vehicles: composition and state (Example 7). It counts as physicochemical. As to conditions: Table 12: 1mg/ml; Polyethylene glycol 400 5, Hydroxypropyl-β-cyclodextrin 10, Tris-HCl buffer (pH 8.3) 10mM, Hydroxypropyl methylcellulose 1, Poloxamer 188 1. The text has this:
In the following ophthalmic formulation preparation examples, "solution" refers to a clear, transparent liquid without visible insoluble matter. "Near-clear solution" refers to a liquid that appears close to a solution upon visual observation but may contain a small amount of insoluble particles or have a slightly opaque color. "Suspension" refers to a liquid that is visibly turbid or opaque. "Gel" refers to a completely or partially gel-like solid.
Example 7: Ophthalmic Formulations Based on Polyethylene Glycol Series Vehicles
According to the formulation composition shown in the tables below, weigh the compound powder, add it to polyethylene glycol 400, and sonicate until dissolved or nearly dissolved (heat to 50°C if necessary). Add this to a Tris-HCl buffer solution containing hydroxypropyl-β-cyclodextrin, poloxamer 188, and gellan gum (or other viscosity modifier), vortex to mix, and prepare into an eye drop formulation.

Data set [7] deals with T3, VEGFR2 (Homo sapiens, UniProt P35968).
T3 construct: purchased Carna 08-191
T3 sequence (P35968 20-1356): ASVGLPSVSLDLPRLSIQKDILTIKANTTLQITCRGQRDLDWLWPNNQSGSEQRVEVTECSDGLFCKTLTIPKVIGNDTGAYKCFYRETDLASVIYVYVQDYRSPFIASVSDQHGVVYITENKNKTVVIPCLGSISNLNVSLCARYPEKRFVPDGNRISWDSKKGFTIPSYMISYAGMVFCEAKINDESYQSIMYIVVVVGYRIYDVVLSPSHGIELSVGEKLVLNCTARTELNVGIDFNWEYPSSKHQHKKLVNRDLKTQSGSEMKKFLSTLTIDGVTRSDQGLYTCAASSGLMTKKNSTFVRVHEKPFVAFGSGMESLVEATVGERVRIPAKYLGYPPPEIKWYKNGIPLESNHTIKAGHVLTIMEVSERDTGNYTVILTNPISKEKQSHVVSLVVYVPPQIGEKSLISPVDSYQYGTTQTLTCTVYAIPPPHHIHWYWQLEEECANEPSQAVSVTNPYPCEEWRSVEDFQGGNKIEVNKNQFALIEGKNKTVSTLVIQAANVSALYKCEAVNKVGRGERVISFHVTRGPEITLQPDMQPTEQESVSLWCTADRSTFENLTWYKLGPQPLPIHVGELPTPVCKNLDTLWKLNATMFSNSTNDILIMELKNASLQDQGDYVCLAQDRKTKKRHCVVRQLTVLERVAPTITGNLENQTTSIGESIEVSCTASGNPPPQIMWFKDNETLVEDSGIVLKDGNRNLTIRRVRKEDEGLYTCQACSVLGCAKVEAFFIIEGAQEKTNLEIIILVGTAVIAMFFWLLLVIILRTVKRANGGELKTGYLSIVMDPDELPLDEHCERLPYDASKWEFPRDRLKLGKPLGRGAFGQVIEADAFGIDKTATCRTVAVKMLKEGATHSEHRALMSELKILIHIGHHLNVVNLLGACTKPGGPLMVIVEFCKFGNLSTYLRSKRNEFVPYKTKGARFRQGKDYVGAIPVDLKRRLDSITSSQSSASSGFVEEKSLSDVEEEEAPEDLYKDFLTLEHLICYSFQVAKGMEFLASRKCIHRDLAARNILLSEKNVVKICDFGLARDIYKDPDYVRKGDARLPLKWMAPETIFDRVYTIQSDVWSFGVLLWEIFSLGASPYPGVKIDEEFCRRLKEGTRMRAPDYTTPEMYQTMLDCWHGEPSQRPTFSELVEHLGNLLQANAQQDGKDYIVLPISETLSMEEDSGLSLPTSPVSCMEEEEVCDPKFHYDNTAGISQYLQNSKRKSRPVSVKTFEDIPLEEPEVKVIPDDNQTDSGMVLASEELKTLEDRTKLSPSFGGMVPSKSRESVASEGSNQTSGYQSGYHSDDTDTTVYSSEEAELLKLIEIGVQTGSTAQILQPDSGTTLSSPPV
Kind of data set: Kinase inhibitory activity, Mobility Shift Assay (VEGFR2). It counts as biochemical. How it is done: as §1, §2, §3, §4

Where [8] appears, read: Solution B, 1 mg/mL (0.05 mg/eye, 50 µL/eye), formulation pH 8.3.
Setting [9] is: Suspension A, 1 mg/mL (0.05 mg/eye, 50 µL/eye), formulation pH 8.4.
Where [10] appears, read: Suspension A, 5 mg/mL (0.25 mg/eye, 50 µL/eye), formulation pH 8.4.

In brackets after ≈: the same amount, converted by molar mass.

The term fraction unbound denotes free concentration divided by total concentration. A higher fraction unbound goes with much free substance. The term IC50 denotes the concentration at which inhibition is half-maximal. The term solubility denotes the dissolved amount per volume that the medium holds.

T2 sequence (P17948 27-1338): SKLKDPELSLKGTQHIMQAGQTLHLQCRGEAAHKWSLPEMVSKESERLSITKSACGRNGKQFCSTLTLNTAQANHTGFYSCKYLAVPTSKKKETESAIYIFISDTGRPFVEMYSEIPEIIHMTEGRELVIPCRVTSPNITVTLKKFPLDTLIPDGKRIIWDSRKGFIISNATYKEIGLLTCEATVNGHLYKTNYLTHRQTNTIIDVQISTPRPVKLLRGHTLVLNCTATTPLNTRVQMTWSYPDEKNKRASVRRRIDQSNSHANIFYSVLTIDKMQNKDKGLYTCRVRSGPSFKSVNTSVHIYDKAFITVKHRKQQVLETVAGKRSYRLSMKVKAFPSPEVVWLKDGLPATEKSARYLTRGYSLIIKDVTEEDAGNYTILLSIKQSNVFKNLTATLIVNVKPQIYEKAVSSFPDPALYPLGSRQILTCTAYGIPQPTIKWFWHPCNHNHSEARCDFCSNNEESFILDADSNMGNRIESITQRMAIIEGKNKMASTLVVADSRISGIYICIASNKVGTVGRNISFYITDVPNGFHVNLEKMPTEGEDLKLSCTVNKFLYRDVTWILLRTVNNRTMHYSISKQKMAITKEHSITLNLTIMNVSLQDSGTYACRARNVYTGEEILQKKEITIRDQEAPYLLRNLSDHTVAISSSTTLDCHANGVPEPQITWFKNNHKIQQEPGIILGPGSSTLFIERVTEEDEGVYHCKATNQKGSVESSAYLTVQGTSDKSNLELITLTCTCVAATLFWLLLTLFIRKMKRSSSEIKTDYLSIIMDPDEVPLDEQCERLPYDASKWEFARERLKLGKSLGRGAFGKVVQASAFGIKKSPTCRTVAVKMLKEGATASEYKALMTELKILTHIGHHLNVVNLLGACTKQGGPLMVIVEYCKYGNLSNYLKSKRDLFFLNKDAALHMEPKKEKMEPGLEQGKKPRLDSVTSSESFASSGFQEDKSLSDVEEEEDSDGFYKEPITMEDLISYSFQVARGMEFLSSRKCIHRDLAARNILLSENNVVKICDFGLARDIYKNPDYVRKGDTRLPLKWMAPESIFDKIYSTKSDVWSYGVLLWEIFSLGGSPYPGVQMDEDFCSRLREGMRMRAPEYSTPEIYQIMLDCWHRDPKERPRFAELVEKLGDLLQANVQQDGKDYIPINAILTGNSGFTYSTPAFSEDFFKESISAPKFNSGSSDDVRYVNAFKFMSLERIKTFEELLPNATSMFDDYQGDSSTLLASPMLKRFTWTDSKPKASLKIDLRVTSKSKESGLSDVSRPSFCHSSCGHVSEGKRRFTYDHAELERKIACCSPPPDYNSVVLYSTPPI
T1 sequence (P35916 25-1363): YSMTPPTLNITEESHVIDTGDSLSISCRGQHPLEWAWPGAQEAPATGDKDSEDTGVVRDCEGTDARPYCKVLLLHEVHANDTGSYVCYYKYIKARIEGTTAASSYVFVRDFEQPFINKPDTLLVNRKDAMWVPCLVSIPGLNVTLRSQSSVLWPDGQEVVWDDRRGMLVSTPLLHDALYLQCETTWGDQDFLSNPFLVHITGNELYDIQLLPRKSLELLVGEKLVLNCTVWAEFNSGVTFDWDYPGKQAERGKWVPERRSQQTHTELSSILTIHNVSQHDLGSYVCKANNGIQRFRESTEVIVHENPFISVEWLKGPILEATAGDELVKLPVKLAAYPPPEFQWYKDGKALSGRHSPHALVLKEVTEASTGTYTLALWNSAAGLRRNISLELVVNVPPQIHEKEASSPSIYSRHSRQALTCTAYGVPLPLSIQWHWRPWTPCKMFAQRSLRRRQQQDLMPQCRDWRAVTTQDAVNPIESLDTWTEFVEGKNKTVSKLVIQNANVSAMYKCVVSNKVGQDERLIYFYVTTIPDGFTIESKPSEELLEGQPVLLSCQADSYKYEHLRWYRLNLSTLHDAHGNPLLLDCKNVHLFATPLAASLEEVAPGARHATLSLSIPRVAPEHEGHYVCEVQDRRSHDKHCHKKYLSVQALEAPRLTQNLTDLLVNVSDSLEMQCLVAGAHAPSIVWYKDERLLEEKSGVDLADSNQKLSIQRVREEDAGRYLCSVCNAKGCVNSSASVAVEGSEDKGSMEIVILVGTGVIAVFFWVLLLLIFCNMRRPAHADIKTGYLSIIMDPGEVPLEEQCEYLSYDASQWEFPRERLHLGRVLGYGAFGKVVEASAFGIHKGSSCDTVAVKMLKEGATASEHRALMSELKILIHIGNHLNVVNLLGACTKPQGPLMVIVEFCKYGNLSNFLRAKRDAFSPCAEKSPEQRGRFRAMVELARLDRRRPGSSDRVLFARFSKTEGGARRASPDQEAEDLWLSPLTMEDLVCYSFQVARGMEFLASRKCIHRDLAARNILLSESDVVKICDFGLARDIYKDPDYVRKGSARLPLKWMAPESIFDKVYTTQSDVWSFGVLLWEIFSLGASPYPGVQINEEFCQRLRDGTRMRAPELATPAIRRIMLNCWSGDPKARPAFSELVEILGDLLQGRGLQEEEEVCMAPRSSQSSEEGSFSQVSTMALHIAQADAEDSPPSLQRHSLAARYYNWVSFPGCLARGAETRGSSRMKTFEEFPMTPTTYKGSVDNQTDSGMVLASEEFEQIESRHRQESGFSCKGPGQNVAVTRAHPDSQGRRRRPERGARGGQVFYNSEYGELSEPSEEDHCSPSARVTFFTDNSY

Molecule `CNC(=O)c1ccccc1Sc1ccc2c(/C=C/c3ccn(CCN4CCCC4)n3)n[nH]c2c1` [Compound I-13] showed a fraction unbound at 2 h, 2 µM in data set [1] of 0.01 to 0.05. Further, the IC50 in data set [2] is not above 1 nM.

Molecule `CNC(=O)c1ccccc1Sc1ccc2c(/C=C/c3ccc(OCCN4CCOCC4)cn3)n[nH]c2c1` [Compound I-3, N-methyl-2-((3-((E)-2-(5-(2-(morpholin-4-yl)ethoxy)pyridin-2-yl)ethenyl)-1H-indazol-6-yl)thio)benzamide] registered a fraction unbound at 2 h, 2 µM in data set [1] of 0.01 to 0.05. Further, the IC50 in data set [2] and in data set [3] was not above 1 nM in each case. Further, in data set [4], the concentration in solution (solubility at 8 h) came to 0.5 µg/mL (≈ 0.97 µM).

As for `CNC(=O)c1ccccc1Sc1ccc2c(/C=C/c3ccc(OCCN4CCCC4)cn3)n[nH]c2c1` [Compound I-6], the fraction unbound at 2 h, 2 µM in data set [1] lay within 0.01 to 0.05. Also, the IC50 in data set [3] is not above 1 nM. The concentration in solution in data set [4] (solubility at 8 h) was 226 µg/mL (≈ 452 µM).

In data set [1], `CNC(=O)c1c(F)cccc1Sc1ccc2c(/C=C/c3ccc(OCCN4CCCC4)cn3)n[nH]c2c1` [Compound I-36, 2-fluoro-N-methyl-6-({3-[(E)-2-{5-[2-(pyrrolidin-1-yl)ethoxy]pyridin-2-yl}ethenyl]-1H-indazol-6-yl}sulfanyl)benzamide] came in with a fraction unbound at 2 h, 2 µM of more than 0.05. In addition, the IC50 in data set [3] was more than 100 nM. Moreover, in data set [4], the concentration in solution (solubility at 8 h) came to 16.2 µg/mL (≈ 31.3 µM).

Take `CNC(=O)c1ccccc1Sc1ccc2c(/C=C/c3cnn(CCCN4CCCC4)c3)n[nH]c2c1` [Compound I-32, N-methyl-2-((3-((E)-2-(1-(3-(pyrrolidin-1-yl)propyl)-1H-pyrazol-4-yl)ethenyl)-1H-indazol-6-yl)thio)benzamide]: in data set [5] (setting [8]), the “Choroid AUC” value amounted to 381 ng·h/g, the “Conjunctiva AUC” value was found to be 2142 ng·h/g, the “Cornea AUC” value came out at 590 ng·h/g and the “Plasma Concentration 0.5h” value is “BLOQ”. Besides, in data set [5] (setting [8]), the “Retina AUC” value turned out to be 784 ng·h/g and the “Sclera AUC” value came out at 998 ng·h/g. Also, in data set [5] (setting [9]), the “Choroid AUC” value was 526 ng·h/g, the “Conjunctiva AUC” value is 6157 ng·h/g, the “Cornea AUC” value stood at 3380 ng·h/g and the “Iris AUC” value came to 162 ng·h/g. Further, in data set [5] (setting [9]), the “Retina AUC” value was found to be 330 ng·h/g, the “Sclera AUC” value was 2175 ng·h/g and the concentration at 0.5 h came out at 2.4 ng/mL. In data set [5] (setting [10]), the “Choroid AUC” value came to 1594.5 ng·h/g, the “Conjunctiva AUC” value worked out at 17380.5 ng·h/g, the “Cornea AUC” value was 5175 ng·h/g and the “Iris AUC” value worked out at 549.5 ng·h/g. In data set [5] (setting [10]), the “Retina AUC” value was found to be 613 ng·h/g, the “Sclera AUC” value amounted to 2439.5 ng·h/g and the concentration at 0.5 h came out at 5.6 ng/mL. In addition, in data set [6], the “State Description: pH” value is recorded as approximately 8 and the “State Description: state” value is given as “solution”. Besides, the fraction unbound at 2 h, 2 µM in data set [1] was 0.01 to 0.05. This molecule also gave a solubility at 8 h in data set [4] of 327 µg/mL (≈ 672 µM).

On to `CNC(=O)c1ccccc1Sc1ccc2c(/C=C/c3ccc(OC[C@@H]4CCN(C)C4)cn3)n[nH]c2c1` [Compound I-39], for which the IC50 in data set [7] and in data set [3] was not above 1 nM in each case.

As to `CNC(=O)c1ccccc1Sc1ccc2c(Nc3ccc(OCCN4CCCC4)cn3)n[nH]c2c1` [Compound I-30, N-methyl-2-((3-((5-(2-(pyrrolidin-1-yl)ethoxy)pyridin-2-yl)amino)-1H-indazol-6-yl)thio)benzamide], the IC50 in data set [7], in data set [2] and in data set [3] was more than 100 nM in each case.

Regarding `CNC(=O)c1ccccc1Sc1ccc2c(C#Cc3cc(OCCN4CCCC4)ccn3)n[nH]c2c1` [Compound I-23], the fraction unbound at 2 h, 2 µM in data set [1] lay within 0.01 to 0.05. The IC50 in data set [2] was more than 100 nM. In addition, the solubility at 8 h in data set [4] worked out at 859 µg/mL (≈ 1730 µM).

Consider `CNC(=O)c1ccccc1Sc1ccc2c(/C=C/c3ccc(O)cn3)n[nH]c2c1` [Compound I-10, 2-({3-[(E)-2-(5-hydroxypyridin-2-yl)ethenyl]-1H-indazol-6-yl}thio)-N-methylbenzamide], for which the IC50 in data set [2] was not above 1 nM.

As for `CNC(=O)c1ccccc1Sc1ccc2c(/C=C/c3ccc(OCCC4CCN(C)CC4)cn3)n[nH]c2c1` [Compound I-5], in data set [1], the unbound share (fraction unbound) at 2 h, 2 µM was 0.01 to 0.05. Also, the IC50 in data set [7], in data set [2] and in data set [3] was not above 1 nM each time. Further, the solubility at 8 h in data set [4] was found to be 177 µg/mL (≈ 335 µM).

Consider `O=C(NC1CC1)c1ccccc1Sc1ccc2c(/C=C/c3cccc(CCCN4CCCC4)n3)n[nH]c2c1` [Compound I-121], for which the IC50 in data set [7] and in data set [2] was not above 1 nM in each case.

As for `CN(C)Cc1ccc(/C=C/c2n[nH]c3cc(Sc4ccccc4C(=O)NC4CC4)ccc23)nc1` [Compound I-40, N-cyclopropyl-2-((3-((E)-2-(5-((dimethylamino)methyl)pyridin-2-yl)ethenyl)-1H-indazol-6-yl)thio)benzamide], in data set [1], the fraction unbound at 2 h, 2 µM lay within 0.01 to 0.05. Besides, the IC50 in data set [3] is not above 1 nM.

In the case of `CN1CCN(c2ccc(/C=C/c3n[nH]c4cc(Sc5ccccc5C(=O)NC5CC5)ccc34)nc2)CC1` [Compound I-38, N-cyclopropyl-2-({3-[(E)-2-[5-(4-methylpiperazin-1-yl)pyridin-2-yl]ethenyl]-1H-indazol-6-yl}thio)benzamide], the fraction unbound at 2 h, 2 µM in data set [1] is 0.01 to 0.05. The IC50 in data set [7], in data set [2] and in data set [3] was not above 1 nM throughout.

(Values after patent EP4781984A1 (Beyang Therapeutics Co., Ltd., priority 2023, dated 2025).)
